Data taken from PMC7898037, “Improving mitochondria and ER stability helps eliminate upper motor neuron degeneration that occurs due to mSOD1 toxicity and TDP‐43 pathology” (Clinical and Translational Medicine, 2021).

Assays:
[1] = system: UMNs in the motor cortex of hSOD1^G93A‐UeGFP mice; assay: UMN quantification in motor cortex, hSOD1^G93A‐UeGFP mice; format: in vivo; details: for Mean, Fig. 5E (UMN quantification in motor cortex): hSOD1G93A-UeGFP mice; for average number of UMNs per section in the motor cortex: hSOD1^G93A‐UeGFP mice
Experimental: (§1) hSOD1^G93A‐UeGFP, prpTDP‐43^A315T‐UeGFP and WT‐UeGFP mice were weighed and the required NU‐9 dose per weight was calculated (20 or 100 mg/kg), which was administered once daily by oral gavage, starting at postnatal day (P)60 and continuing until P120. Animals from the untreated group received the vehicle (NMP and olive oil) only. For oral administration purposes, 20 ga × 38 mm plastic feeding tubes were used (Instech Laboratories, Inc). The gavage tip was inserted into the mouth directly over the tongue and into the pharynx. While observing the swallowing reflex, the tip was safely and smoothly slid into the esophagus. Once the administration was completed, the gavage tip was pulled straight out.
Since UMNs are genetically labeled with eGFP expression in the motor cortex of WT‐UeGFP, hSOD1^G93A‐UeGFP, and prpTDP‐43^A315T‐UeGFP mice, UMNs were identified based on the GFP expression. Quantitative analyses were performed on three matched rostrocaudal sections spanning the motor cortex. Three images per subject were taken to capture a 4× objective filed that encompass layer 5 of the motor cortex. An inverted epifluorescent Eclipse TE2000‐E microscope (Nikon) with the same exposure time and intensity was used. UMNs were counted only if their soma and apical dendrite were both visualized in the same 50‐µm thick section. Images were analyzed in ImageJ (NIH) using the Find maxima processing command to determine the local maxima within a predetermined region of interest that circumscribes the layer 5 of the motor cortex. A universal noise tolerance, which ignores the local maxima corresponding to background and autofluorescence, was applied to all images.

cortical neurons = system: cortical neurons; set-up: method as in earlier work; details: ref 53 (compound 2), ref 54 (NU‐9); cited from earlier work
[2] = cited from earlier work
WT‐UeGFP mice = assay: Hanging wire test (max 60 s), WT‐UeGFP mice; format: in vivo; set-up: Mean Diff. (wire hanging), vehicle vs. NU-9 / Mean (wire hanging): unit not given here; details: for Hanging wire test, group mean (Mean 1 / Mean 2): WT-UeGFP mice; for wire hanging, Average / Mean (wire hanging): WT-UeGFP
Experimental: as §1
Behavior data were collected from hSOD1^G93A‐UeGFP and WT‐UeGFP mice (starting at P60 and every 7 days until P116) and from prpTDP‐43^A315T‐UeGFP mice (at P60, P90, and P120) with the following number of mice for each group: WT‐UeGFP vehicle (n = 10), hSOD1^G93A‐UeGFP vehicle (n = 6), WT‐UeGFP 20 mg/kg/day NU‐9 (n = 5), hSOD1^G93A‐UeGFP 20 mg/kg/day NU‐9 (n = 7), WT‐UeGFP 100 mg/kg/day NU‐9 (n = 11), hSOD1^G93A‐UeGFP 100 mg/kg/day NU‐9 (n = 9), prpTDP‐43^A315T‐UeGFP untreated (n ≥ 3), and prpTDP‐43^A315T‐UeGFP 100 mg/kg/day NU‐9 (n = 4) (Table S3).
Mice were placed on a wire mesh, which was then inverted and suspended above the home cage; the time when the animal fell was recorded. This test was performed three times for a maximum of 60 s each session, with a 1‐min rest period between each trial. The average performance for each session is presented as the average of the three trials.

[3] = WT-UeGFP vehicle vs. NU-9 20 mg/kg/day, P102
[4] = WT-UeGFP vehicle vs. NU-9 20 mg/kg/day, P109
[5] = WT-UeGFP vehicle vs. NU-9 20 mg/kg/day, P116
[6] = WT-UeGFP vehicle vs. NU-9 100 mg/kg/day, P102
[7] = WT-UeGFP vehicle vs. NU-9 100 mg/kg/day, P109
[8] = WT-UeGFP vehicle vs. NU-9 100 mg/kg/day, P116

C[C@H](Oc1cc(C(F)(F)F)cc(C(F)(F)F)c1)C1CC(=O)CC(=O)C1 [NU‐9]
Mean, Fig. 5E (UMN quantification in motor cortex) ([1]; NU-9 20 mg/kg/day): 21.06
Mean, Fig. 5E (UMN quantification in motor cortex) ([1]; NU-9 100 mg/kg/day): 46.43
Mean Diff., Fig. 5E, GS Vehicle vs. GS NU-9 (20) ([1]; hSOD1G93A-UeGFP vehicle minus NU-9 20 mg/kg/day, Tukey's multiple comparisons test): -16.12
Mean Diff., Fig. 5E, GS Vehicle vs. GS NU-9 (100) ([1]; hSOD1G93A-UeGFP vehicle minus NU-9 100 mg/kg/day, Tukey's multiple comparisons test): -41.49
average number of UMNs per section in the motor cortex ([1]; 20 mg/kg/day oral gavage P60–P120): 21 ± 5 UMN
average number of UMNs per section in the motor cortex ([1]; 100 mg/kg/day oral gavage P60–P120): 46 ± 3 UMN
penetration into neurons (cortical neurons): penetrated cortical neurons
plasma stability t 1/2 [2]: > 2 h
Hanging wire test, group mean (Mean 1 / Mean 2) (WT‐UeGFP mice; NU-9 20 mg/kg/day, P102, max 60 s): 60 s
Hanging wire test, group mean (Mean 1 / Mean 2) (WT‐UeGFP mice; NU-9 20 mg/kg/day, P109, max 60 s): 60 s
Hanging wire test, group mean (Mean 1 / Mean 2) (WT‐UeGFP mice; NU-9 20 mg/kg/day, P116, max 60 s): 60 s
Hanging wire test, group mean (Mean 1 / Mean 2) (WT‐UeGFP mice; NU-9 100 mg/kg/day, P102, max 60 s): 60 s
Hanging wire test, group mean (Mean 1 / Mean 2) (WT‐UeGFP mice; NU-9 100 mg/kg/day, P109, max 60 s): 60 s
Hanging wire test, group mean (Mean 1 / Mean 2) (WT‐UeGFP mice; NU-9 100 mg/kg/day, P116, max 60 s): 59.7 s
Mean Diff. (wire hanging), vehicle vs. NU-9 (WT‐UeGFP mice; WT-UeGFP vehicle vs. NU-9 20 mg/kg/day, P60): 0
Mean Diff. (wire hanging), vehicle vs. NU-9 (WT‐UeGFP mice; WT-UeGFP vehicle vs. NU-9 20 mg/kg/day, P67): 0.3333
Mean Diff. (wire hanging), vehicle vs. NU-9 (WT‐UeGFP mice; WT-UeGFP vehicle vs. NU-9 20 mg/kg/day, P74): 2.267
Mean Diff. (wire hanging), vehicle vs. NU-9 (WT‐UeGFP mice; WT-UeGFP vehicle vs. NU-9 20 mg/kg/day, P81): 0
Mean Diff. (wire hanging), vehicle vs. NU-9 (WT‐UeGFP mice; WT-UeGFP vehicle vs. NU-9 20 mg/kg/day, P88): 0
Mean Diff. (wire hanging), vehicle vs. NU-9 (WT‐UeGFP mice; WT-UeGFP vehicle vs. NU-9 20 mg/kg/day, P95): 2
Hanging wire test, mean difference vehicle minus NU-9 (WT‐UeGFP mice; [3]): 0 s
Mean Diff. (wire hanging), vehicle vs. NU-9 (WT‐UeGFP mice; [3]): 0
Hanging wire test, mean difference vehicle minus NU-9 (WT‐UeGFP mice; [4]): 0 s
Mean Diff. (wire hanging), vehicle vs. NU-9 (WT‐UeGFP mice; [4]): 0
Hanging wire test, mean difference vehicle minus NU-9 (WT‐UeGFP mice; [5]): 0 s
Mean Diff. (wire hanging), vehicle vs. NU-9 (WT‐UeGFP mice; [5]): 0
Mean Diff. (wire hanging), vehicle vs. NU-9 (WT‐UeGFP mice; WT-UeGFP vehicle vs. NU-9 100 mg/kg/day, P60): 1.273
Mean Diff. (wire hanging), vehicle vs. NU-9 (WT‐UeGFP mice; WT-UeGFP vehicle vs. NU-9 100 mg/kg/day, P67): 0
Mean Diff. (wire hanging), vehicle vs. NU-9 (WT‐UeGFP mice; WT-UeGFP vehicle vs. NU-9 100 mg/kg/day, P74): 0
Mean Diff. (wire hanging), vehicle vs. NU-9 (WT‐UeGFP mice; WT-UeGFP vehicle vs. NU-9 100 mg/kg/day, P81): 0
Mean Diff. (wire hanging), vehicle vs. NU-9 (WT‐UeGFP mice; WT-UeGFP vehicle vs. NU-9 100 mg/kg/day, P88): 0.1818
Mean Diff. (wire hanging), vehicle vs. NU-9 (WT‐UeGFP mice; WT-UeGFP vehicle vs. NU-9 100 mg/kg/day, P95): 0
Hanging wire test, mean difference vehicle minus NU-9 (WT‐UeGFP mice; [6]): 0 s
Mean Diff. (wire hanging), vehicle vs. NU-9 (WT‐UeGFP mice; [6]): 0
Hanging wire test, mean difference vehicle minus NU-9 (WT‐UeGFP mice; [7]): 0 s
Mean Diff. (wire hanging), vehicle vs. NU-9 (WT‐UeGFP mice; [7]): 0
Hanging wire test, mean difference vehicle minus NU-9 (WT‐UeGFP mice; [8]): 0.303 s
Mean Diff. (wire hanging), vehicle vs. NU-9 (WT‐UeGFP mice; [8]): 0.303
wire hanging, Average (WT‐UeGFP mice; NU-9 20 mg/kg/day po, P60): 60 s
wire hanging, Average (WT‐UeGFP mice; NU-9 20 mg/kg/day po, P67): 59.6667 s
wire hanging, Average (WT‐UeGFP mice; NU-9 20 mg/kg/day po, P74): 57.7333 s
wire hanging, Average (WT‐UeGFP mice; NU-9 20 mg/kg/day po, P81): 60 s
wire hanging, Average (WT‐UeGFP mice; NU-9 20 mg/kg/day po, P88): 60 s
wire hanging, Average (WT‐UeGFP mice; NU-9 20 mg/kg/day po, P95): 58 s
wire hanging, Average (WT‐UeGFP mice; NU-9 20 mg/kg/day po, P102): 60 s
wire hanging, Average (WT‐UeGFP mice; NU-9 20 mg/kg/day po, P109): 60 s
wire hanging, Average (WT‐UeGFP mice; NU-9 20 mg/kg/day po, P116): 60 s
Mean (wire hanging) (WT‐UeGFP mice; NU-9 20 mg/kg/day, P60): 60
Mean (wire hanging) (WT‐UeGFP mice; NU-9 20 mg/kg/day, P67): 59.67
Mean (wire hanging) (WT‐UeGFP mice; NU-9 20 mg/kg/day, P74): 57.73
Mean (wire hanging) (WT‐UeGFP mice; NU-9 20 mg/kg/day, P81): 60
Mean (wire hanging) (WT‐UeGFP mice; NU-9 20 mg/kg/day, P88): 60
Mean (wire hanging) (WT‐UeGFP mice; NU-9 20 mg/kg/day, P95): 58
wire hanging, Average (WT‐UeGFP mice; NU-9 100 mg/kg/day po, P60): 58.7273 s
wire hanging, Average (WT‐UeGFP mice; NU-9 100 mg/kg/day po, P67): 60 s
wire hanging, Average (WT‐UeGFP mice; NU-9 100 mg/kg/day po, P74): 60 s
wire hanging, Average (WT‐UeGFP mice; NU-9 100 mg/kg/day po, P81): 60 s
wire hanging, Average (WT‐UeGFP mice; NU-9 100 mg/kg/day po, P88): 59.8182 s
wire hanging, Average (WT‐UeGFP mice; NU-9 100 mg/kg/day po, P95): 60 s
wire hanging, Average (WT‐UeGFP mice; NU-9 100 mg/kg/day po, P102): 60 s
wire hanging, Average (WT‐UeGFP mice; NU-9 100 mg/kg/day po, P109): 60 s
wire hanging, Average (WT‐UeGFP mice; NU-9 100 mg/kg/day po, P116): 59.697 s
Mean (wire hanging) (WT‐UeGFP mice; NU-9 100 mg/kg/day, P60): 58.73
Mean (wire hanging) (WT‐UeGFP mice; NU-9 100 mg/kg/day, P67): 60
Mean (wire hanging) (WT‐UeGFP mice; NU-9 100 mg/kg/day, P74): 60
Mean (wire hanging) (WT‐UeGFP mice; NU-9 100 mg/kg/day, P81): 60
Mean (wire hanging) (WT‐UeGFP mice; NU-9 100 mg/kg/day, P88): 59.82
Mean (wire hanging) (WT‐UeGFP mice; NU-9 100 mg/kg/day, P95): 60
